Data set [1] addresses T1, NUAK1 (Homo sapiens, UniProt O60285).
T1 sequence (O60285 1-661): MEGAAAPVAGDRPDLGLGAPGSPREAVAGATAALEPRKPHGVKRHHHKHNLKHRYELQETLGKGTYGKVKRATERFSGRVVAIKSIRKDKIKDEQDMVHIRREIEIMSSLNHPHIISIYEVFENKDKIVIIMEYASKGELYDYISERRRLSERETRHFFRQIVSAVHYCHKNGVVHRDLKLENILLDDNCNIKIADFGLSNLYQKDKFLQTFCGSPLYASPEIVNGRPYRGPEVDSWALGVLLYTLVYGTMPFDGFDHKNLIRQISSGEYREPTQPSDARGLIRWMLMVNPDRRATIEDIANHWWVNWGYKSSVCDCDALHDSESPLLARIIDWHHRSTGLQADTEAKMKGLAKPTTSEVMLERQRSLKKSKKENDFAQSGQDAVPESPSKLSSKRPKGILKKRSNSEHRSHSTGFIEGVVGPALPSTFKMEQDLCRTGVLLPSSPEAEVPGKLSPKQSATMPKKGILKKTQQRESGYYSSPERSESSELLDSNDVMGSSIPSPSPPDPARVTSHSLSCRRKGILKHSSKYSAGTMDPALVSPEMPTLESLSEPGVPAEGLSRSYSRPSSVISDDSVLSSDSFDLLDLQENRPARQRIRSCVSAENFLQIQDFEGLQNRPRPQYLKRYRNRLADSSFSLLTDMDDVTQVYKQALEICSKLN
As to the kind of experiment: MRC Dundee kinase panel screen at 10 μM. It counts as biochemical.

Data set [2] has as its target CSNK1G2 (Homo sapiens, UniProt P78368). The experiment in a line: Dose–response of top 10 kinase hits. It counts as biochemical. Conditions: read-out: IC50 CSNK1G2, n = 2.
In data set [3] the test system is TNF expression in THP-1 human macrophages. As to the kind of experiment: Cytokine profile in stimulated THP-1 human macrophages. The following applies: 10 μM; THP-1 macrophages stimulated with LPS and IFNγ; vs vehicle. It counts as cell-based.
Data set [4] is described as follows: Oral pharmacokinetics in Sprague-Dawley rats. It counts as in vivo.
The target in data set [5] is T2, GCK (Homo sapiens, UniProt Q12851).
T2 sequence (Q12851 1-820): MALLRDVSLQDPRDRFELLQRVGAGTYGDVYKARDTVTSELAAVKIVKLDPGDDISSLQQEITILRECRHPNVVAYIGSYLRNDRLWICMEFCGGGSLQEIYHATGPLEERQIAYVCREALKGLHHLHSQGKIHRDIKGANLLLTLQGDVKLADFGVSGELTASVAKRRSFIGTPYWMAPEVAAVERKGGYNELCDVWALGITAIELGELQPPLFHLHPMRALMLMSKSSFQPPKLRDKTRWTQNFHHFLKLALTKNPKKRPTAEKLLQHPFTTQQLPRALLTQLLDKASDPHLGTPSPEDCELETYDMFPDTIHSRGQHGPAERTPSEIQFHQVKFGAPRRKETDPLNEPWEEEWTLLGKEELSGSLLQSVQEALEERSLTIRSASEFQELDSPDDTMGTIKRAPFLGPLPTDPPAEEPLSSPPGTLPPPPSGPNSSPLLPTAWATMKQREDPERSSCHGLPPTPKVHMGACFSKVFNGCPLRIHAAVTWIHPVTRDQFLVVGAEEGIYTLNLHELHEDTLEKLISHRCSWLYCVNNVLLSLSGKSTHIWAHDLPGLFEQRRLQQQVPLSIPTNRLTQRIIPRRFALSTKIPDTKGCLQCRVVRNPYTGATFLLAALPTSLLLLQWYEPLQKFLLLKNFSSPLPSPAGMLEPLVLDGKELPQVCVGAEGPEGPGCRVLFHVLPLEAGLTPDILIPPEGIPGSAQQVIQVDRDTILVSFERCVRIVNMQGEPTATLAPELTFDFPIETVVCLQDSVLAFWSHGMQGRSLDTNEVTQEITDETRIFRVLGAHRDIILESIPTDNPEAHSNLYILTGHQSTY
As to the kind of experiment: Dose–response of top 10 kinase hits. It counts as biochemical.

The target of data set [6] is CLK2 (Homo sapiens, UniProt P49760). The experiment in a line: Dose–response of top 10 kinase hits. It counts as biochemical.

Where only a bound is given, the exact number is not on record here.

Chain of CLK2 (P49760 whole entry): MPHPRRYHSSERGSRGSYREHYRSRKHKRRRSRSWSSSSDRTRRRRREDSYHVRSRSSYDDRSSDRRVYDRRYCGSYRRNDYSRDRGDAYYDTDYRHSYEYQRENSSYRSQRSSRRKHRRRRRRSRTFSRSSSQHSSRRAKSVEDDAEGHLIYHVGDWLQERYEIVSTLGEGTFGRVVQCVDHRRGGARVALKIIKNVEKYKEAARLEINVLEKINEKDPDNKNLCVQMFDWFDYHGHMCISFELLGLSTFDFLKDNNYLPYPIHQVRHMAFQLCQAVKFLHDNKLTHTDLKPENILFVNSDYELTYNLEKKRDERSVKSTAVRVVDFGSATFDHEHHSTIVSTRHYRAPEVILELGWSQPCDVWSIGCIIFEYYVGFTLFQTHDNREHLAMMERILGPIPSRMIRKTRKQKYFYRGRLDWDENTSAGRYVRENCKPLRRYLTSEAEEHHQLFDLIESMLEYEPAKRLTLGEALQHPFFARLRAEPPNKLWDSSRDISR
Chain of CSNK1G2 (P78368 whole entry): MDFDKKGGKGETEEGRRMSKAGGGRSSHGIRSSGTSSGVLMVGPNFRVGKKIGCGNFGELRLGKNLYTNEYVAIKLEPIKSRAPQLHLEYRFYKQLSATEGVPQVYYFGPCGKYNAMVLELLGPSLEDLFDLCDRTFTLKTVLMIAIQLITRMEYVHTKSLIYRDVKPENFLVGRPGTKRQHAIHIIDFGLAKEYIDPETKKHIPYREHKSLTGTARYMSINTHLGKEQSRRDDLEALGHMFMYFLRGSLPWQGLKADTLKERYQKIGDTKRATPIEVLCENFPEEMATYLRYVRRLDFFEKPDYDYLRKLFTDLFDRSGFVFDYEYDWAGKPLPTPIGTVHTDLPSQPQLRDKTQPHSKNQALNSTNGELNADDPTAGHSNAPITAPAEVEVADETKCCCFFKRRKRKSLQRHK

In general, IC50 refers to the concentration at which inhibition is half-maximal. Broadly, the Cmax is the maximum level reached in the sampled fluid or tissue. By Tmax is commonly meant the time at which the peak concentration occurs. In general, half-life refers to the time needed for the level to fall by half in the phase considered. Read a low half-life as fast loss. Take `CCCn1c(NC(=O)c2cccc(C(N)=O)c2)nc2ccc(CN3CCCCC3)cc21` [HS-276]: the enzymatic activity in data set [1] is reported as below 15%. In data set [2], the half-maximal inhibitory concentration (IC50) worked out at 809 nM. In addition, the “reduction of TNF expression” value in data set [3] came out at 11 fold. Moreover, the “time up to which μM serum levels are shown” value in data set [4] (post oral gavage, species not stated) is “up to 8 h”. In addition, in data set [4] (rat, 50 mg/kg oral gavage), the “time up to which μM plasma concentration is shown” value lay in the range of 8 to 12 h. In data set [4] (rat, 50 mg/kg oral gavage, at 12 h), this molecule displayed a peak urine concentration of 100 µM. Further, in data set [4] (rat, PO, 50 mg/kg), the AUC0-last is 6462 ng·h/mL, the maximum concentration (Cmax) was 1890 ng/mL, the Tmax worked out at 2 h and the half-life is reported as 5.46 h. Moreover, in data set [5] (from dose–response IC50 values), the “TAK1 more potently inhibited than GCK” value was determined as 4.1 fold. Further, the IC50 in data set [5] (read-out: IC50 GCK, dose–response, n = 2) came out at 33 nM. For the same molecule, the “TAK1 more potently inhibited than CLK2” value in data set [6] (from dose–response IC50 values) was found to be 3.6 fold. In data set [6] (read-out: IC50 CLK2, dose–response, n = 2), the half-inhibitory concentration (IC50) worked out at 29 nM.

The values are drawn from article PMC9245008 (ACS chemical biology, 2022).
